Results published in the RepoRT retention time repository.
Counter-ions that a name gives are not always drawn.

Assay: RP, Thermo Scientific Hypersil GOLD, 1.9 µm, 40 °C, 0.4 mL/min; A: water + 0.1% formic acid, pH 3; B: acetonitrile + 0.1% formic acid, pH 3; gradient (min/%B) 0/0 1/0 11/100 13/100 14/0 16/0
Settings: stereoisomer not certain

First: O=C(O)c1cccc[n+]1[O-] [Picolinic acid N-oxide]
Second: O=C([O-])c1ccccn1 [PICOLINATE]
The LC retention time of the first is 2.5-fold higher: 2.04 min for the first, 0.82 min for the second.

Compared with Nc1ccn(C2OC(CO)C(O)C2O)c(=O)n1 (centres undefined) [CYTIDINE], Nc1ccn(C2OC(COP(=O)(O)OP(=O)(O)O)C(O)C2O)c(=O)n1 (centres undefined) [CYTIDINE DIPHOSPHATE] is 1.5-fold higher in LC retention time: 0.78 min for the first, 1.2 min for the second.

Cc1cccnc1 [3-Methylpyridine (3-Picoline)] and CN1C(=O)CCC1c1cccnc1 (centres undefined) [Cotinine] are within 1.5-fold of each other in LC retention time: 0.82 min for the first, 0.83 min for the second.

NC(=O)NCCCC(N)C(=O)O (centres undefined) [CITRULLINE] and NCC(O)CCC(N)C(=O)O (centres undefined) [5-HYDROXYLYSINE] are within 1.5-fold of each other in LC retention time: 0.65 min for the first, 0.57 min for the second.

CC(=O)C1CCC2C3CC=C4CC(OS(=O)(=O)O)CCC4(C)C3CCC12C (centres undefined) [pregnenolone sulfate] and CC(CCC(=O)NCCS(=O)(=O)O)C1CCC2C3CCC4CC(O)CCC4(C)C3CCC12C (centres undefined) [LITHOCHOLYLTAURINE] are within 1.5-fold of each other in LC retention time: 8.05 min for the first, 8.73 min for the second.

First: CNC(CC(=O)O)C(=O)O (centres undefined) [N-METHYLASPARTATE]
Second: CC(CCC(=O)O)C(=O)O (centres undefined) [2-METHYLGLUTARATE]
The LC retention time of the first is 7-fold lower: 0.63 min for the first, 4.4 min for the second.

O=C1OC(CO)C(O)C(O)C1O (centres undefined) [GLUCONOLACTONE] and OCC1OC(O)C(O)C(O)C1O (centres undefined) [GALACTOSE] are the same in LC retention time: 0.64 min for the first, 0.64 min for the second.

NC(=O)c1ncccc1O [3-Hydroxypicolinamide] and O=C(O)c1c(O)cccc1O [2-6-Dihydroxybenzoic acid] are within 1.5-fold of each other in LC retention time: 4.64 min for the first, 5.12 min for the second.

CC1=C(/C=C/C(C)=C/C=C/C(C)=C/C=C/C=C(C)/C=C/C=C(C)/C=C/C2=C(C)CCCC2(C)C)C(C)(C)CCC1 [BETA-CAROTENE] and C#CC1(O)CCC2C3CCc4cc(O)ccc4C3CCC21C (racemic) are within 1.5-fold of each other in LC retention time: 9.23 min for the first, 8.17 min for the second.

CCCCCCCC(=O)OC(CC(=O)[O-])C[N+](C)(C)C [Octanoyl-L-carnitine] and CCCCCCCCCCCC(=O)OC(CC(=O)[O-])C[N+](C)(C)C (centres undefined) [LAUROYLCARNITINE] are within 1.5-fold of each other in LC retention time: 6.74 min for the first, 8.63 min for the second.

O=C([O-])C(O)C(O)C(=O)[O-] (stereo not drawn) [MESO-TARTRATE] and O=C([O-])C=CC(=O)[O-] [MALEATE] are within 1.5-fold of each other in LC retention time: 0.71 min for the first, 0.88 min for the second.

O=C(O)Cc1cnc[nH]1 [4-IMIDAZOLEACETATE] and CC(N)(Cc1cnc[nH]1)C(=O)O (racemic) [Alpha-methyl-DL-histidine dihydrochloride] are within 1.5-fold of each other in LC retention time: 0.67 min for the first, 0.61 min for the second.

Going from O=c1[nH]c(=O)c2nccnc2[nH]1 [2-4-DIHYDROXYPTERIDINE] to Cc1c[nH]c(=O)[nH]c1=O [THYMINE], the LC retention time rises from 0.96 min to 1.47 min (1.5-fold).

CC(=O)NC(CC(C)C)C(=O)O (centres undefined) [N-ACETYLLEUCINE] and CSCCC(NC(C)=O)C(=O)O (centres undefined) [N-ACETYLMETHIONINE] are within 1.5-fold of each other in LC retention time: 5.47 min for the first, 4.61 min for the second.

First: NC(=O)c1ccc[n+](C2OC(COP(=O)(O)OP(=O)(O)OCC3OC(n4cnc5c(=O)[nH]cnc54)C(O)C3O)C(O)C2O)c1 (centres undefined) [NICOTINAMIDE HYPOXANTHINE DINUCLEOTIDE]
Second: NC(=O)c1ccc[n+](C2OC(COP(=O)(O)OP(=O)(O)OCC3OC(n4cnc5c(N)ncnc54)C(OP(=O)(O)O)C3O)C(O)C2O)c1 (centres undefined) [NADP]
The LC retention time of the first is 5.1-fold lower: 0.82 min for the first, 4.21 min for the second.

O=C(O)C(=O)CCc1ccccc1 [2-oxo-4-phenyl-butyric acid] and O=C(O)CCc1ccccc1 [hydrocinnamic acid] are within 1.5-fold of each other in LC retention time: 6.35 min for the first, 6.87 min for the second.

O=C(O)C1CCCN1 (centres undefined) [PROLINE] and CC(=O)C(=O)O [pyruvic acid] are within 1.5-fold of each other in LC retention time: 0.69 min for the first, 0.78 min for the second.

Compared with Nc1nc2c(ncn2C2OC(CO)C(O)C2O)c(=O)[nH]1 (centres undefined) [GUANOSINE], Nc1ncnc2c1ncn2C1OC(CO)C(OP(=O)(O)O)C1O (centres undefined) [Adenosine 3'-monophosphate free acid] is 1.5-fold lower in LC retention time: 1.26 min for the first, 0.82 min for the second.

NCCOP(=O)(O)OP(=O)(O)OCC1OC(n2ccc(N)nc2=O)C(O)C1O (centres undefined) [CDP-ETHANOLAMINE] and O=c1ccn(C2OC(COP(=O)(O)O)C(O)C2O)c(=O)[nH]1 (centres undefined) [URIDINE MONOPHOSPHATE] are within 1.5-fold of each other in LC retention time: 0.64 min for the first, 0.76 min for the second.

O=C(O)Cc1ccc(O)cc1 [4-Hydroxyphenylacetic acid] and O=C(O)Cc1cccc(O)c1 [3-HYDROXYPHENYLACETATE] are within 1.5-fold of each other in LC retention time: 4.88 min for the first, 5.11 min for the second.

O=C(CO)COP(=O)(O)O [DIHYDROXYACETONE PHOSPHATE] and O=P(O)(O)OCC1OC(O)(CO)C(O)C1O (centres undefined) [FRUCTOSE 6-PHOSPHATE] are within 1.5-fold of each other in LC retention time: 0.69 min for the first, 0.66 min for the second.

NC1C(O)OC(COS(=O)(=O)O)C(O)C1O (centres undefined) [GLUCOSAMINE 6-SULFATE] and OC1COC(O)C(O)C1O (centres undefined) [XYLOSE] are within 1.5-fold of each other in LC retention time: 0.62 min for the first, 0.64 min for the second.

Compared with CC(C)(N)C(=O)O [2-AMINOISOBUTYRATE], CC(C)(CC(=O)O)C(=O)O [2-2-Dimethylsuccinic acid] is 7.2-fold higher in LC retention time: 0.67 min for the first, 4.85 min for the second.

Compared with O=CCc1ccccc1 [PHENYLACETALDEHYDE], Nc1ccccc1O [2-AMINOPHENOL] is 11-fold lower in LC retention time: 10.3 min for the first, 0.9 min for the second.

Going from CC(=O)OC(CC(=O)[O-])C[N+](C)(C)C (stereo not drawn) [o-acetyl-l-carnitine hydrochloride] to CCCCCCCC=CC(=O)OC(CC(=O)[O-])C[N+](C)(C)C (stereo not drawn) [Trans -2-decenoyl-l-carnitine], the LC retention time rises from 0.81 min to 7.45 min (9.2-fold).

CC1OC(OCC2OC(Oc3c(-c4ccc(O)c(O)c4)oc4cc(O)cc(O)c4c3=O)C(O)C(O)C2O)C(O)C(O)C1O (centres undefined) [rutin hydrate] and O=c1c(O)c(-c2ccc(O)c(O)c2)oc2cc(O)cc(O)c12 [quercetine dihydrate] are within 1.5-fold of each other in LC retention time: 5.42 min for the first, 6.55 min for the second.

Going from Nc1cc(C(=O)O)ccc1[O-] [3-AMINO-4-HYDROXYBENZOATE] to O=C(O)c1ccc(O)cc1O [2-4-Dihydroxybenzoic acid], the LC retention time rises from 0.82 min to 4.88 min (6-fold).

CCCCCCC=CCCCCCCCC(=O)O [PALMITOLEATE] and CCCCCCCCCCCC=CCCCCC(=O)[O-] [PETROSELINATE] are within 1.5-fold of each other in LC retention time: 11.7 min for the first, 12.5 min for the second.

Nc1nc2ncc(CNc3ccc(C(=O)NC(CCC(=O)O)C(=O)O)cc3)nc2c(=O)[nH]1 (centres undefined) [FOLATE] and CC(=O)NC(Cc1c[nH]c2ccccc12)C(=O)O (centres undefined) [N-ACETYLTRYPTOPHAN] are within 1.5-fold of each other in LC retention time: 4.68 min for the first, 5.83 min for the second.

Going from C[N+](C)(C)CC(=O)[O-] [BETAINE] to CCC(=O)C(=O)[O-] [2-OXOBUTANOATE], the LC retention time rises from 0.65 min to 9.98 min (15-fold).

Nc1ccn(C2CC(O)C(COP(=O)(O)O)O2)c(=O)n1 (centres undefined) [DEOXYCYTIDINE MONOPHOSPHATE] and C[S+](CCC(N)C(=O)[O-])CC1OC(n2cnc3c(N)ncnc32)C(O)C1O (centres undefined) [S-ADENOSYLMETHIONINE] are within 1.5-fold of each other in LC retention time: 0.74 min for the first, 0.59 min for the second.

Compared with O=c1c(-c2ccc(O)cc2)coc2cc(OC3OC(CO)C(O)C(O)C3O)ccc12 (centres undefined) [daidzin], N[C@H](C(=O)O)c1ccc(O)cc1 [4-HYDROXY-L-PHENYLGLYCINE] is 7.8-fold lower in LC retention time: 5.24 min for the first, 0.67 min for the second.

NC(N)=NC(CC(=O)O)C(=O)O (centres undefined) [GUANIDINOSUCCINATE] and NC(N)=NCC(=O)O [GUANIDINOACETATE] are within 1.5-fold of each other in LC retention time: 0.67 min for the first, 0.62 min for the second.

O=C1OC(C(O)CO)C(O)=C1O (centres undefined) [ASCORBATE] and NC(Cc1ccc(O)c(O)c1)C(=O)O [3-4-DIHYDROXY-L-PHENYLALANINE] are within 1.5-fold of each other in LC retention time: 0.78 min for the first, 0.82 min for the second.

O=C(O)CCCCCCCCCO [10-HYDROXYDECANOATE] and O=C(O)CCCCCCCCCCCO [OMEGA-HYDROXYDODECANOATE] are within 1.5-fold of each other in LC retention time: 6.79 min for the first, 7.84 min for the second.

CC(=O)NCCCCN [N-ACETYLPUTRESCINE] and NCCCNCCCN [NORSPERMIDINE] are within 1.5-fold of each other in LC retention time: 0.71 min for the first, 0.49 min for the second.

O=C(O)CCCCCCC(=O)O [SUBERATE] and O=C(O)CCCCCCCCC(=O)O [Sebacic acid] are within 1.5-fold of each other in LC retention time: 5.58 min for the first, 6.67 min for the second.

Compared with O=C(O)c1ccc(CO)o1 [5-hydroxymethyl-2-furancarboxylic acid], O=S(=O)(O)c1ccc(O)c(O)c1 [3-4-dihydroxybenzenesulfonic acid] is 4.2-fold lower in LC retention time: 3.49 min for the first, 0.84 min for the second.

CC1NCCc2cc(O)c(O)cc21 (centres undefined) [SALSOLINOL] and Cc1ncc(CO)c(CO)c1O [PYRIDOXINE] are the same in LC retention time: 0.82 min for the first, 0.82 min for the second.

CCCCCCCCCCCCCCCCCCCC(=O)O [ARACHIDATE] and CCCCCCCCCCCCCCCC(=O)OC(CC(=O)[O-])C[N+](C)(C)C [Palmitoyl-L-carnitine] are within 1.5-fold of each other in LC retention time: 13.5 min for the first, 9.69 min for the second.

Going from NC(Cc1cc(I)c(Oc2cc(I)c(O)c(I)c2)c(I)c1)C(=O)O (centres undefined) [THYROXINE] to Cn1cnc(C[C@H](N)C(=O)O)c1 [1-METHYL-L-HISTIDINE], the LC retention time falls from 7.42 min to 0.59 min (13-fold).

O=C(O)c1ccc2ccccc2n1 [2-QUINOLINECARBOXYLATE] and OCCc1c[nH]c2ccccc12 [INDOLE-3-ETHANOL] are within 1.5-fold of each other in LC retention time: 4.64 min for the first, 6.28 min for the second.

Going from CCCCCCCCC=CCCCCCCCC(=O)OCC(O)CO (centres undefined) [OLEOYL-GLYCEROL] to COC(=O)CCC(=O)O [mono-Methyl hydrogen succinate], the LC retention time falls from 12.1 min to 3.97 min (3-fold).

Compared with CC(CCC(=O)O)C1CCC2C3C(O)CC4CC(O)CCC4(C)C3CC(O)C12C (centres undefined) [CHOLATE], O=C(O)CC(CC(=O)O)C(=O)O [Tricarballylic acid] is 6-fold lower in LC retention time: 8.17 min for the first, 1.36 min for the second.

Going from CC(C)CC(O)C(=O)O (centres undefined) [2-Hydroxyisocaproic acid] to CCC(C)C(N)C(=O)O (centres undefined) [ISOLEUCINE], the LC retention time falls from 6.31 min to 1.48 min (4.3-fold).

CSc1ncnc2nc[nH]c12 [THIOPURINE S-METHYLETHER] and O=Cc1cccc(O)c1 [3-HYDROXYBENZALDEHYDE] are within 1.5-fold of each other in LC retention time: 4.8 min for the first, 5.4 min for the second.

NC(=O)NC1NC(=O)NC1=O (centres undefined) [ALLANTOIN] and NC(CS)C(=O)NCC(=O)O (centres undefined) [CYS-GLY] are within 1.5-fold of each other in LC retention time: 0.67 min for the first, 0.59 min for the second.
